# Data published in patent US20250179059A1 (The Regents of the University of California, priority 2021, published 2025).
# Where two headings read alike, the source gives them in different places.
# Assays:
# [1] = biological target: T1, human BRD4 bromodomain II (Homo sapiens, UniProt O60885); experiment: Bromodomain binding assay (AlphaScreen), BRD4 BDII
# T1 construct: human BRD4 bromodomain II [based on Genbank NM_058243, residues 349-460]; host or cells: E. coli
# Procedure, shortened: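 E. coli-expressed N-terminal His6-tagged human BRD4 BDII (residues 349-460) or BDI (residues 44-170) was preincubated 30 min at room temperature with compound (10-point, 3-fold) in pH 7.5 HEPES buffer, 1% DMSO. Displacement of biotinylated tetra-acetylated H4 1-21 peptide was read by AlphaScreen, and IC50 came from curve fitting.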
# [2] = system: human SKM-1 acute myeloid leukemia cells; experiment: SKM-1 antiproliferation cell-based assay (ATPlite); details: Homo sapiens
# Procedure, shortened: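 Log-phase cells in RPMI 1640/15% FBS were seeded at 34722 cells/mL and exposed for 4 days to nine-concentration DMSO serial dilutions in triplicate. Viability was read as ATP luminescence (ATPlite 1step), and IC50 values came from variable-slope non-linear regression.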
# [3] = AlphaScreen assay, Table C2, read-out: BRD4 BDII IC50
# [4] = SKM-1, 96 h, SKM-1 antiproliferation assay, 4 days, Table C2
# [5] = BRD4 BDII AlphaScreen assay, read-out: BRD4 BD2 IC50
# [6] = SKM-1, SKM-1 antiproliferation assay
"IC50 [1, 3] [nM]","GI50 [2, 4] [nM]","IC50 [1, 5] [nM]","GI50 [2, 6] [nM]",Compound
1 to 10,30 to 300,–,–,"CN1CCN(c2ccc(-c3cc(F)cc(-c4ccnc(N5CCC[C@H](N)C5)c4)c3O)cc2Cl)C1=O [Example 360, (S)-1-(3′-(2-(3-aminopiperidin-1-yl)pyridin-4-yl)-3-chloro-5′-fluoro-2′-hydroxy-[1,1′-biphenyl]-4-yl)-3-methylimidazolidin-2-one]"
0.01 to 1,30 to 300,–,–,"Cn1ccn(-c2ccc(-c3cc(F)cc(-c4ccnc(N5CCN6CCCCC6C5)c4)c3O)cc2Cl)c1=O (stereo not shown) [Example 624, 1-(3-chloro-5′-fluoro-3′-(2-(hexahydro-1H-pyrido[1,2-a]pyrazin-2(6H)-yl)pyridin-4-yl)-2′-hydroxy-[1,1′-biphenyl]-4-yl)-3-methyl-1H-imidazol-2(3H)-one]"
10 to 100,≥ 3000,–,–,"CNC(=O)c1cc(-c2ccnc(N3CCNCC3)c2)c(O)c(-c2ccc(NC(C)=O)c(F)c2)c1 [Example 299, 4′-Acetamido-3′-fluoro-6-hydroxy-N-methyl-5-(2-(piperazin-1-yl)pyridin-4-yl)-[1,1′-biphenyl]-3-carboxamide]"
0.01 to 1,30 to 300,–,–,"Cn1ccn(-c2ccc(-c3cc(F)cc(-c4ccnc(N5CCNC(C6CC6)C5)c4)c3O)cc2Cl)c1=O (stereo not drawn) [Example 643, 1-(3-chloro-3′-(2-(3-cyclopropylpiperazin-l-yl)pyridin-4-yl)-5′-fluoro-2′-hydroxy-[1,1′-biphenyl]-4-yl)-3-methyl-1H-imidazol-2(3H)-one]"
0.01 to 1,0.3 to 30,–,–,"CN(C)[C@@H]1CN(c2cc(-c3cc(F)cc(-c4ccc(-n5ccn(C)c5=O)c(Cl)c4)c3O)ccn2)C[C@H]1O [Example 752, 1-(3-chloro-3′-(2-((3R,4R)-3-(dimethylamino)-4-hydroxypyrrolidin-1-yl)pyridin-4-yl)-5′-fluoro-2′-hydroxy-[1,1′-biphenyl]-4-yl)-3-methyl-1H-imidazol-2(3H)-one]"
0.01 to 1,0.3 to 30,–,–,"COc1ncc(-c2cc(F)cc(-c3ccc(-n4ccn(C)c4=O)c(Cl)c3)c2O)cc1N1CC[C@@](C)(O)C1 [Example 812, (R)-1-(3-chloro-5′-fluoro-2′-hydroxy-3′-(5-(3-hydroxy-3-methylpyrrolidin-1-yl)-6-methoxypyridin-3-yl)-[1,1′-biphenyl]-4-yl)-3-methyl-1H-imidazol-2(3H)-one]"
10 to 100,300 to 3000,–,–,"CN1CCN(c2ccc(-c3cc(F)cc(-c4ccnc(N(C)CCN)c4)c3O)cc2Cl)C1=O [Example 347, 1-(3′-(2-((2-aminoethyl)(methyl)amino)pyridin-4-yl)-3-chloro-5′-fluoro-2′-hydroxy-[1,1′-biphenyl]-4-yl)-3-methylimidazolidin-2-one]"
–,–,> 100,300 to 3000,"CC(=O)Nc1ccc(-c2cc(F)cc(-c3cccc(N4CCN(C(C)(C)C)CC4)c3)c2O)nc1 [Example 912, N-(6-(3′-(4-(tert-butyl)piperazin-1-yl)-5-fluoro-2-hydroxy-[1,1′-biphenyl]-3-yl)pyridin-3-yl)acetamide]"

# Continued, compound first:
Compound,"IC50 [1, 3] [nM]","GI50 [2, 4] [nM]","IC50 [1, 5] [nM]","GI50 [2, 6] [nM]"
"CC(C)N1CCN(c2cc(-c3cc(F)cc(-c4ccc(-n5ccn(C)c5=O)c(Cl)c4)c3O)ccc2F)CC1 [Example 720, 1-(3-chloro-4″,5′-difluoro-2′-hydroxy-3″-(4-isopropylpiperazin-1-yl)-[1,1′:3′,1″-terphenyl]-4-yl)-3-methyl-1H-imidazol-2(3H)-one]",0.01 to 1,0.3 to 30,–,–
"CN1CCN(c2ccc(-c3cc(F)cc(-c4ccnc(N5CCNCC5=O)c4)c3O)cc2Cl)C1=O [Example 449, 1-(4-(3′-chloro-5-fluoro-2-hydroxy-4′-(3-methyl-2-oxoimidazolidin-1-yl)-[1,1′-biphenyl]-3-yl)pyridin-2-yl)piperazin-2-one]",1 to 10,300 to 3000,–,–
"CN1CCN(c2ccc(-c3cc(F)cc(-c4cc(N5CCNCC5)c5cc[nH]c5c4)c3O)cc2Cl)C1=O [Example 460, 1-(3-chloro-5′-fluoro-2′-hydroxy-3′-(4-(piperazin-1-yl)-1H-indol-6-yl)-[1,1′-biphenyl]-4-yl)-3-methylimidazolidin-2-one]",1 to 10,0.3 to 30,–,–
"CC(=O)Nc1ccc(-c2cccc(-c3cc(OC4CC4)nc(N4CCNCC4)c3)c2O)cc1F [Example 351, N-(3′-(2-cyclopropoxy-6-(piperazin-l-yl)pyridin-4-yl)-3-fluoro-2′-hydroxy-[1,1′-biphenyl]-4-yl)acetamide]",10 to 100,300 to 3000,–,–
"Cn1ccn(-c2c(Cl)cc(-c3cc(F)cc(-c4cccc(N5CCN(C(C)(C)C)CC5)c4)c3O)cc2C2CC2)c1=O [Example 933, 1-(3″-(4-(tert-butyl)piperazin-1-yl)-3-chloro-5-cyclopropyl-5′-fluoro-2′-hydroxy-[1,1′:3′,1″-terphenyl]-4-yl)-3-methyl-1H-imidazol-2(3H)-one]",–,–,10 to 100,30 to 300
"CN1CCN(c2ccc(-c3cccc(-c4ccnc(N5CC6(CNC6)C5)c4)c3O)cc2F)C1=O [Example 322, 1-(3′-(2-(2,6-diazaspiro[3.3]heptan-2-yl)pyridin-4-yl)-3-fluoro-2′-hydroxy-[1,1′-biphenyl]-4-yl)-3-methylimidazolidin-2-one]",10 to 100,30 to 300,–,–
"Cn1ccn(-c2ccc(-c3cc(F)cc(-c4ccnc(N5CCC[C@H](O)C5)c4)c3O)cc2Cl)c1=O [Example 628, (S)-1-(3-chloro-5′-fluoro-2′-hydroxy-3′-(2-(3-hydroxypiperidin-1-yl)pyridin-4-yl)-[1,1′-biphenyl]-4-yl)-3-methyl-1H-imidazol-2(3H)-one]",0.01 to 1,30 to 300,–,–
"CC(C)N1CCCC12CCN(c1cc(-c3cc(F)cc(-c4ccc(-n5ccn(C)c5=O)c(Cl)c4)c3O)cnc1N(C)C)C2 (stereo not shown) [Example 969, 1-(3-chloro-3′-(6-(dimethylamino)-5-(1-isopropyl-1,7-diazaspiro[4.4]nonan-7-yl)pyridin-3-yl)-5′-fluoro-2′-hydroxy-[1,1′-biphenyl]-4-yl)-3-methyl-1H-imidazol-2(3H)-one]",–,–,1 to 10,30 to 300
"COc1ncc(-c2nccc(-c3ccc(-n4ccn(C)c4=O)c(Cl)c3)c2O)cc1N1CCN(C(C)(C)C)CC1 [Example 1005, 1-(4-(5′-(4-(tert-butyl)piperazin-1-yl)-3-hydroxy-6′-methoxy-[2,3′-bipyridin]-4-yl)-2-chlorophenyl)-3-methyl-1H-imidazol-2(3H)-one]",–,–,1 to 10,0.3 to 30
"CC1=CCN(c2ccc(-c3cccc(-c4ccnc(N5CCNCC5)c4)c3O)cc2Cl)C1=O [Example 356, 1-(3-chloro-2′-hydroxy-3′-(2-(piperazin-1-yl)pyridin-4-yl)-[1,1′-biphenyl]-4-yl)-3-methyl-1H-pyrrol-2(5H)-one]",1 to 10,30 to 300,–,–
"CN1CCN(c2ccc(-c3cc(F)cc(-c4cnc(N5CCOCC5)c(N5CCNCC5)c4)c3O)cc2Cl)C1=O [Example 415, 1-(3-chloro-5′-fluoro-2′-hydroxy-3′-(6-morpholino-5-(piperazin-1-yl)pyridin-3-yl)-[1,1′-biphenyl]-4-yl)-3-methylimidazolidin-2-one]",1 to 10,30 to 300,–,–
"CN1CCN(c2ccc(-c3cc(F)cc(-c4cc(N5CCNCC5)c5cn[nH]c5c4)c3O)cc2Cl)C1=O [Example 458, 1-(3-chloro-5′-fluoro-2′-hydroxy-3′-(4-(piperazin-1-yl)-1H-indazol-6-yl)-[1,1′-biphenyl]-4-yl)-3-methylimidazolidin-2-one]",1 to 10,0.3 to 30,–,–
"C#CCN1CCN(c2ccc(-c3cc(F)cc(-c4ccnc(N5CCNCC5)c4)c3O)cc2Cl)C1=O [Example 367, 1-(3-chloro-5′-fluoro-2′-hydroxy-3′-(2-(piperazin-1-yl)pyridin-4-yl)-[1,1′-biphenyl]-4-yl)-3-(prop-2-yn-1-yl)imidazolidin-2-one]",> 100,300 to 3000,–,–
"Cn1ccn(-c2ccc(-c3cc(F)cc(-c4ccnc(N5CCC(C)(C(=O)O)C5)c4)c3O)cc2Cl)c1=O (stereo not shown) [Example 769, 1-(4-(3′-chloro-5-fluoro-2-hydroxy-4′-(3-methyl-2-oxo-2,3-dihydro-1H-imidazol-1-yl)-[1,1′-biphenyl]-3-yl)pyridin-2-yl)-3-methylpyrrolidine-3-carboxylic acid]",1 to 10,300 to 3000,–,–
"CC(=O)Nc1ccc(-c2cccc(-c3cccc(N4CCNC(=O)C4)c3)c2O)cc1F [Example 254, N-(3-fluoro-2′-hydroxy-3″-(3-oxopiperazin-1-yl)-[1,1′:3′,1″-terphenyl]-4-yl)acetamide]",10 to 100,≥ 3000,–,–
"CN1CCN(c2ccc(-c3cccc(-c4cncc(N5CCNCC5)c4)c3O)cc2Cl)C1=O [Example 293, 1-(3-chloro-2′-hydroxy-3′-(5-(piperazin-l-yl)pyridin-3-yl)-[1,1′-biphenyl]-4-yl)-3-methylimidazolidin-2-one]",1 to 10,30 to 300,–,–
"Cc1ncc(-c2cc(F)cc(-c3ccc(N4CCN(C)C4=O)c(Cl)c3)c2O)cc1N1CCNCC1 [Example 388, 1-(3-chloro-5′-fluoro-2′-hydroxy-3′-(6-methyl-5-(piperazin-1-yl)pyridin-3-yl)-[1,1′-biphenyl]-4-yl)-3-methylimidazolidin-2-one]",1 to 10,30 to 300,–,–
"CC(=O)NCc1cc(-c2cccc(-c3ccc(N4CCN(C)C4=O)c(Cl)c3)c2O)cc(N2CCNCC2)c1 [Example 327, N-((3″-chloro-2′-hydroxy-4″-(3-methyl-2-oxoimidazolidin-1-yl)-5-(piperazin-1-yl)-[1,1′:3′,1″-terphenyl]-3-yl)methyl)acetamide]",1 to 10,30 to 300,–,–
